Assay results from ChEMBL document CHEMBL1158449, “Hirtellanines A and B, a pair of isomeric isoflavonoid derivatives from Campylotropis hirtella and their immunosuppressive activities” (Bioorg Med Chem Lett, 2009).

What was measured:
[1] = Cytotoxicity against splenocytes after 48 hrs by MTT assay; type: cell-based, Splenocyte
Splenocyte [2] = assay: Immunosuppressive activity in splenocytes assessed as inhibition of concanavalin A-induced proliferation after 48 hrs by [3H]thymidine incorporation assay; type: functional, cell-based; conditions: Mus musculus
Splenocyte [3] = assay: Selectivity index, CC50 for splenocytes to IC50 for concanavalin A-induced splenocyte proliferation; type: functional
Splenocyte [4] = assay: Immunosuppressive activity in splenocytes assessed as inhibition of LPS-induced proliferation after 48 hrs by [3H]thymidine incorporation assay; type: functional, cell-based; conditions: Mus musculus
Splenocyte [5] = assay: Selectivity index, CC50 for splenocyte to IC50 for LPS-induced splenocytes proliferation; type: functional

## COc1c2c(cc3oc4oc5cc(O)c(O)cc5c4c(=O)c13)OC(C)(C)C=C2 [HIRTELLANINE A]
[1]
  CC50 at 48 h: 3.03 µM
Splenocyte [2]
  IC50: 0.92 µM
Splenocyte [3]
  Ratio CC50/IC50: 3.29
Splenocyte [4]
  IC50: 0.06 µM
Splenocyte [5]
  Ratio CC50/IC50: 50.5

## C/C=C/C[C@@H](C)[C@@H](O)[C@H]1C(=O)N[C@@H](CC)C(=O)N(C)CC(=O)N(C)[C@@H](CC(C)C)C(=O)N[C@@H](C(C)C)C(=O)N(C)[C@@H](CC(C)C)C(=O)N[C@@H](C)C(=O)N[C@H](C)C(=O)N(C)[C@@H](CC(C)C)C(=O)N(C)[C@@H](CC(C)C)C(=O)N(C)[C@@H](C(C)C)C(=O)N1C [CYCLOSPORINE]
Splenocyte [3]
  Ratio CC50/IC50: 88
Splenocyte [5]
  Ratio CC50/IC50: 12.39

## COc1c2c(cc3oc(=O)c4c5cc(O)c(O)cc5oc4c13)OC(C)(C)C=C2 [HIRTELLANINE B]
[1]
  CC50 at 48 h: 26.3 µM
Splenocyte [2]
  IC50: 9.55 µM
Splenocyte [3]
  Ratio CC50/IC50: 2.76
Splenocyte [4]
  IC50: 3 µM
Splenocyte [5]
  Ratio CC50/IC50: 8.77
